Data set [1] concerns several mammalian cell types. The following applies: cited from earlier work.
Data set [2] concerns patient with a homozygous AGK founder mutation (Sengers syndrome). Conditions: approximately six months, 0.25 then 0.50 mg/kg/day intravenous. How it is done: The patient was treated with D-Arg-2′6′-Dmt-Lys-Phe-NH2 for approximately six months through a compassionate care protocol.
Another data set addresses mu-opioid receptor (Homo sapiens, UniProt P35372). Briefly: Mu-opioid receptor agonist activity (stated, no test described). Conditions: statement of the description, no test given.

The values that follow come from patent US11931397B2, “Methods and compositions for the treatment of Sengers syndrome” (Stealth BioTherapeutics Inc., priority 2018, dated 2024).

Where a SMILES comes first, the peptide text is derived from it. Where no end group is shown, it is not given here. [ ]: non-standard residue; d: D form. Dmt = Cc1cc(O)cc(C)c1C[C@H](N)C(=O)O

Chain of mu-opioid receptor (P35372 whole entry, species assumed): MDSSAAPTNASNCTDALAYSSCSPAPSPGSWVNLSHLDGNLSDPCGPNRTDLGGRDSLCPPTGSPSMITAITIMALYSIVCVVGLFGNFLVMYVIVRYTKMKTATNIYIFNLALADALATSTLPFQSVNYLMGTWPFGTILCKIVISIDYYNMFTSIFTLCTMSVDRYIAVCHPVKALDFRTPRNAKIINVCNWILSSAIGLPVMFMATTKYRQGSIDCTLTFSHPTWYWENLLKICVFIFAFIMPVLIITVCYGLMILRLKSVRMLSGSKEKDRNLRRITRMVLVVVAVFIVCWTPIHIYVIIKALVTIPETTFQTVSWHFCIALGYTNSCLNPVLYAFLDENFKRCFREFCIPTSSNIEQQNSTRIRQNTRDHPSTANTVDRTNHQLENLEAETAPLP

As for 2′, 6′-Dmt-D-Arg-Phe-Lys-NH2, in data set [1], the “Penetration of the plasma membrane” value is listed as “readily penetrates the plasma membrane of several mammalian cell types in an energy-independent manner”.

For `Cc1cc(O)cc(C)c1C[C@H](NC(=O)[C@H](N)CCCNC(=N)N)C(=O)N[C@@H](CCCCN)C(=O)N[C@@H](Cc1ccccc1)C(N)=O` [D-Arg-2′6′-Dmt-Lys-Phe-NH2] (H-[dR][Dmt]KF-NH2), the “Side effects attributable to treatment” value in data set [2] is recorded as “no discernable side effects”.

As for F[dR]FK-NH2, the “mu-opioid receptor agonist activity” value on mu-opioid receptor is listed as “does not have mu-opioid receptor agonist activity”.

As for Tyr-D-Arg-Phe-Lys-NH2, at mu-opioid receptor, the “mu-opioid receptor agonist activity” value is “has mu-opioid receptor agonist activity”.
